Experimental data: patent US6737383B1, “Herbicidal oxadiazolidines” (priority 1999, dated 2004)

How the values were obtained:
soybean = test: Test B pre/postemergence soybean; format: in vivo, Glycine max
Text: (§1) Seeds of bedstraw (Galium aparine), blackgrass (Alopecurus myosuroides), surinam grass (Brachiaria decumbens), cocklebur (Xanthium strumarium), corn (Zea mays), crabgrass (Digitaria sanguinalis), giant foxtail (Setaria faberii), morningglory (Ipomoea hederacea), pigweed (Amaranthus retroflexus), rape (Brassica napus), soybean (Glycine max), sugar beet (Beta vulgaris), velvetleaf (Abutilon theophrasti), wheat (Triticum aestivum), wild oat (Avena fatua) and purple nutsedge (Cyperus rotundus) tubers were planted and treated preemnergence with test chemicals formulated in a non-phytotoxic solvent mixture which included a surfactant.
(§2) At the same time, these crop and weed species were also treated with postemergence applications of test chemicals formulated in the same manner. Plants ranged in height from 2 to 18 cm (1- to 4-leaf stage) for postemergence treatments. Plant species in the flood test consisted of rice (Oryza sativa), smallflower flatsedge (Cyperus difformis), duck salad (Heteranthera limosa) and bamyardgrass (Echinochloa crus-galli) grown to the 2-leaf stage for testing. Treated plants and controls were maintained in a greenhouse for twelve to sixteen days, after which all species were compared to controls and visually evaluated. Plant response ratings, summarized in Table B, are based on a scale of 0 to 10 where 0 is no effect and 10 is complete control. A dash (−) response means no test result.

blackgrass = test: Test B pre/postemergence blackgrass; format: in vivo, Alopecurus myosuroides
Text: as §1, §2

wild oat = test: Test B pre/postemergence wild oat; format: in vivo, Avena fatua
Procedure, shortened: (§3)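 Test chemicals in a non-phytotoxic solvent mixture with surfactant were sprayed preemergence onto planted seeds and postemergence onto plants 2 to 18 cm tall (1- to 4-leaf stage). After twelve to sixteen days in a greenhouse, injury was visually rated against untreated controls from 0 (no effect) to 10 (complete control).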

cocklebur = test: Test B pre/postemergence cocklebur; format: in vivo, Xanthium strumarium
Text: as §1, §2

wheat = test: Test B pre/postemergence wheat; format: in vivo, Triticum aestivum
Text: as §1, §2

rape = test: Test B pre/postemergence rape; format: in vivo, Brassica napus
Procedure, shortened: as §3

giant foxtail = test: Test B pre/postemergence giant foxtail; format: in vivo, Setaria faberii
Procedure, shortened: as §3

corn = test: Test B pre/postemergence corn; format: in vivo, Zea mays
Text: as §1, §2

sugar beet = test: Test B pre/postemergence sugar beet; format: in vivo, Beta vulgaris
Procedure, shortened: as §3

pigweed = test: Test B pre/postemergence pigweed; format: in vivo, Amaranthus retroflexus
Text: as §1, §2

velvetleaf = test: Test B pre/postemergence velvetleaf; format: in vivo, Abutilon theophrasti
Text: as §1, §2

bedstraw = test: Test B pre/postemergence bedstraw; format: in vivo, Galium aparine; conditions: Preemergence
Procedure, shortened: as §3

crabgrass = test: Test B pre/postemergence crabgrass; format: in vivo, Digitaria sanguinalis
Procedure, shortened: as §3

morningglory = test: Test B pre/postemergence morningglory; format: in vivo, Ipomoea hederacea
Text: as §1, §2

purple nutsedge = test: Test B pre/postemergence purple nutsedge; format: in vivo, Cyperus rotundus
Text: as §1, §2

surinam grass = test: Test B pre/postemergence surinam grass; format: in vivo, Brachiaria decumbens
Procedure, shortened: as §3

[1] = Postemergence, Rate 62 g/ha, scale of 0 to 10, 0 is no effect, 10 is complete control
[2] = Postemergence, Rate 125 g/ha, scale 0 to 10, 0 is no effect, 10 is complete control
[3] = Postemergence, Rate 500 g/ha, scale 0 to 10, 0 is no effect, 10 is complete control
[4] = Preemergence, Rate 62 g/ha, scale 0 to 10 (0 no effect, 10 complete control)
[5] = Preemergence, Rate 125 g/ha, scale 0 to 10, 0 is no effect, 10 is complete control
[6] = Preemergence, Rate 500 g/ha, scale of 0 to 10 where 0 is no effect and 10 is complete control
[7] = Rate 250 g/ha, Postemergence, scale of 0 to 10 where 0 is no effect and 10 is complete control

In the case of COCCOCn1c(=O)on(C(=O)N(c2ccc(Cl)cc2)C(C)C)c1=O [Compound 535], the “Soybean plant response rating” value (soybean; [1]) is reported as 3, the “Soybean plant response rating” value (soybean; [2]) is reported as 6 and the “Plant response rating, Soybean” value (soybean; [3]) is reported as 8. For the same molecule, the “Soybean plant response rating” value (soybean; [4]) was 0, the “Soybean plant response rating” value (soybean; [5]) was 0 and the “Soybean plant response rating (0 to 10 scale)” value (soybean; Preemergence, Rate 250 g/ha) was 0. The “Soybean plant response rating” value (soybean; [6]) was 0, the “Plant response rating, Soybean” value (soybean; [7]) was 6 and the “Blackgrass plant response rating” value (blackgrass; [1]) was 0. For the same molecule, the “Blackgrass plant response rating” value (blackgrass; [2]) was 4, the “Plant response rating, Blackgrass” value (blackgrass; [3]) was 8 and the “Blackgrass plant response rating” value (blackgrass; [5]) was 0. The “Blackgrass plant response rating (0 to 10 scale)” value (blackgrass; Preemergence, Rate 250 g/ha) was 0, the “Blackgrass plant response rating” value (blackgrass; [6]) was 0 and the “Plant response rating, Blackgrass” value (blackgrass; [7]) was 7. For the same molecule, the “Wild oats plant response rating” value (wild oat; [1]) was 0, the “Wild oats plant response rating” value (wild oat; [2]) was 0 and the “Plant response rating, Wild oats” value (wild oat; [3]) was 2. The “Wild oats plant response rating” value (wild oat; [4]) was 0, the “Wild oats plant response rating” value (wild oat; [5]) was 0 and the “Wild oats plant response rating (0 to 10 scale)” value (wild oat; Preemergence, Rate 250 g/ha) was 0. For the same molecule, the “Wild oats plant response rating” value (wild oat; [6]) was 0, the “Plant response rating, Wild oats” value (wild oat; [7]) was 0 and the “Cocklebur plant response rating” value (cocklebur; [1]) was 0. The “Cocklebur plant response rating” value (cocklebur; [2]) was 0, the “Plant response rating, Cocklebur” value (cocklebur; [3]) was 0 and the “Cocklebur plant response rating” value (cocklebur; [4]) was 0. The “Cocklebur plant response rating” value (cocklebur; [5]) was 0, the “Cocklebur plant response rating (0 to 10 scale)” value (cocklebur; Preemergence, Rate 250 g/ha) was 0 and the “Cocklebur plant response rating” value (cocklebur; [6]) was 0. For the same molecule, the “Plant response rating, Cocklebur” value (cocklebur; [7]) was 0, the “Wheat plant response rating” value (wheat; [1]) was 0 and the “Wheat plant response rating” value (wheat; [2]) was 0. The “Plant response rating, Wheat” value (wheat; [3]) was 2, the “Wheat plant response rating” value (wheat; [4]) was 0 and the “Wheat plant response rating” value (wheat; [5]) was 0. The “Wheat plant response rating (0 to 10 scale)” value (wheat; Preemergence, Rate 250 g/ha) was 0, the “Wheat plant response rating” value (wheat; [6]) was 0 and the “Plant response rating, Wheat” value (wheat; [7]) was 0. The “Rape plant response rating” value (rape; [1]) was 0, the “Rape plant response rating” value (rape; [2]) was 0 and the “Plant response rating, Rape” value (rape; [3]) was 0. For the same molecule, the “Rape plant response rating” value (rape; [4]) was 2, the “Rape plant response rating” value (rape; [5]) was 2 and the “Rape plant response rating (0 to 10 scale)” value (rape; Preemergence, Rate 250 g/ha) was 2. The “Rape plant response rating” value (rape; [6]) was 3, the “Plant response rating, Rape” value (rape; [7]) was 0 and the “Giant foxtail plant response rating” value (giant foxtail; [1]) was 5. For the same molecule, the “Plant response rating, Giant foxtail” value (giant foxtail; [3]) was 5, the “Giant foxtail plant response rating” value (giant foxtail; [4]) was 10 and the “Giant foxtail plant response rating” value (giant foxtail; [5]) was 10. For the same molecule, the “Giant foxtail plant response rating (0 to 10 scale)” value (giant foxtail; Preemergence, Rate 250 g/ha) was 10, the “Giant foxtail plant response rating” value (giant foxtail; [6]) was 10 and the “Plant response rating, Giant foxtail” value (giant foxtail; [7]) was 5. The “Corn plant response rating” value (corn; [1]) was 0, the “Corn plant response rating” value (corn; [2]) was 0 and the “Plant response rating, Corn” value (corn; [3]) was 0. The “Corn plant response rating” value (corn; [4]) was 0, the “Corn plant response rating” value (corn; [5]) was 0 and the “Corn plant response rating (0 to 10 scale)” value (corn; Preemergence, Rate 250 g/ha) was 0. The “Corn plant response rating” value (corn; [6]) was 2, the “Plant response rating, Corn” value (corn; [7]) was 0 and the “Sugarbeets plant response rating” value (sugar beet; [1]) was 0. For the same molecule, the “Sugarbeets plant response rating” value (sugar beet; [2]) was 0, the “Plant response rating, Sugarbeets” value (sugar beet; [3]) was 0 and the “Sugarbeets plant response rating” value (sugar beet; [4]) was 4. The “Sugarbeets plant response rating” value (sugar beet; [5]) was 4, the “Sugarbeets plant response rating (0 to 10 scale)” value (sugar beet; Preemergence, Rate 250 g/ha) was 5 and the “Plant response rating, Sugarbeets” value (sugar beet; [7]) was 0. The “Redroot pigweed plant response rating” value (pigweed; [1]) was 0, the “Redroot pigweed plant response rating” value (pigweed; [2]) was 0 and the “Plant response rating, Redroot pigweed” value (pigweed; [3]) was 0. The “Redroot pigweed plant response rating” value (pigweed; [4]) was 2, the “Redroot pigweed plant response rating” value (pigweed; [5]) was 2 and the “Redroot pigweed plant response rating (0 to 10 scale)” value (pigweed; Preemergence, Rate 250 g/ha) was 4. The “Redroot pigweed plant response rating” value (pigweed; [6]) was 4, the “Plant response rating, Redroot pigweed” value (pigweed; [7]) was 0 and the “Velvetleaf plant response rating” value (velvetleaf; [1]) was 0. For the same molecule, the “Velvetleaf plant response rating” value (velvetleaf; [2]) was 0, the “Plant response rating, Velvetleaf” value (velvetleaf; [3]) was 2 and the “Velvetleaf plant response rating” value (velvetleaf; [4]) was 0. The “Velvetleaf plant response rating” value (velvetleaf; [5]) was 0, the “Velvetleaf plant response rating (0 to 10 scale)” value (velvetleaf; Preemergence, Rate 250 g/ha) was 2 and the “Plant response rating, Velvetleaf” value (velvetleaf; [7]) was 0. The “Bedstraw plant response rating” value (bedstraw; Rate 62 g/ha, scale 0 to 10 (0 no effect, 10 complete control)) was 0, the “Bedstraw plant response rating” value (bedstraw; Rate 125 g/ha, scale 0 to 10, 0 is no effect, 10 is complete control) was 0 and the “Bedstraw plant response rating” value (bedstraw; Rate 500 g/ha, scale of 0 to 10 where 0 is no effect and 10 is complete control) was 0. The “Crabgrass plant response rating” value (crabgrass; [1]) was 5, the “Plant response rating, Crabgrass” value (crabgrass; [3]) was 6 and the “Crabgrass plant response rating” value (crabgrass; [4]) was 10. The “Crabgrass plant response rating” value (crabgrass; [5]) was 10, the “Crabgrass plant response rating (0 to 10 scale)” value (crabgrass; Preemergence, Rate 250 g/ha) was 10 and the “Crabgrass plant response rating” value (crabgrass; [6]) was 10. The “Plant response rating, Crabgrass” value (crabgrass; [7]) was 5, the “Morningglory plant response rating” value (morningglory; [1]) was 4 and the “Morningglory plant response rating” value (morningglory; [2]) was 2. For the same molecule, the “Plant response rating, Morningglory” value (morningglory; [3]) was 3, the “Morningglory plant response rating” value (morningglory; [4]) was 0 and the “Morningglory plant response rating” value (morningglory; [5]) was 0. The “Morningglory plant response rating (0 to 10 scale)” value (morningglory; Preemergence, Rate 250 g/ha) was 0, the “Morningglory plant response rating” value (morningglory; [6]) was 2 and the “Plant response rating, Morningglory” value (morningglory; [7]) was 2. The “Nutsedge plant response rating” value (purple nutsedge; [1]) was 0, the “Nutsedge plant response rating” value (purple nutsedge; [2]) was 0 and the “Plant response rating, Nutsedge” value (purple nutsedge; [3]) was 0. For the same molecule, the “Nutsedge plant response rating” value (purple nutsedge; [4]) was 0, the “Nutsedge plant response rating” value (purple nutsedge; [5]) was 0 and the “Nutsedge plant response rating (0 to 10 scale)” value (purple nutsedge; Preemergence, Rate 250 g/ha) was 0. For the same molecule, the “Nutsedge plant response rating” value (purple nutsedge; [6]) was 0, the “Plant response rating, Nutsedge” value (purple nutsedge; [7]) was 0 and the “B. signalgrass plant response rating” value (surinam grass; [1]) was 0. The “B. signalgrass plant response rating” value (surinam grass; [2]) was 0, the “Plant response rating, B. signalgrass” value (surinam grass; [3]) was 3 and the “B. signalgrass plant response rating” value (surinam grass; [5]) was 0. For the same molecule, the “B. signalgrass plant response rating (0 to 10 scale, 0 is no effect, 10 is complete control)” value (surinam grass; Preemergence, Rate 250 g/ha) was 0, the “B. signalgrass plant response rating” value (surinam grass; [6]) was 0 and the “Plant response rating, B. signalgrass” value (surinam grass; [7]) was 0.
